In patent publication US20160046618A1, “Cyclopropyl Fused Thiazin-2-Amine Compounds as Beta-Secretase Inhibitors and Methods of Use” (AMGEN INC., priority 2014, published 2016):

How the values were obtained:
human recombinant BACE1 = human recombinant BACE1 (Homo sapiens (Human), UniProt P56817); test: In vitro enzymatic BACE1 FRET assay; assay type: biochemical; conditions: read-out: IC50 IP (μM) BACE1 enzyme
In short: (§1)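 FRET cleavage assay using Ni-NTA-purified recombinant protease and 50 nM quenched peptide substrate, 1 h. Stopped by neutralising with Tris; fluorescence at 488/590 nm.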

human recombinant BACE2 = human recombinant BACE2 (Homo sapiens (Human), UniProt Q9Y5Z0); test: In vitro enzymatic BACE2 FRET assay; assay type: biochemical; conditions: read-out: IC50 IP (μM) BACE2 enzyme
In short: as §1

[1] = test system: Aβ40 in conditioned medium of cells stably expressing Amyloid Precursor Protein (APP); test: In vitro BACE-1 cell-based assay (Aβ40 sandwich ELISA); conditions: read-out: IC50 IP (μM) BACE1 cell
In short: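 APP-stable cells, pre-cultured 24 h at 37° C in DMEM/10% FBS, were treated 24 h with compound in a 10-point series starting at 100 μM or 10 μM (0.1% DMSO final). Secreted Aβ40 in conditioned medium was measured by pAb40/biotin-6E10 sandwich ELISA with Europium time-resolved fluorescence; IC50 from percent inhibition versus concentration.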

Recombinant Cat D = Recombinant Cat D (Homo sapiens (Human), UniProt P07339); test: In vitro enzymatic Cathepsin D (Cat D) FRET assay; assay type: biochemical; conditions: read-out: IC50 IP (μM) CatD
In short: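 Human Cat D expressed in CHO cells was incubated for one hour in 0.05 M citrate pH 3.5, 5 mM CHAPS, 10% DMSO final, with 20 nM quenched FRET peptide substrate. Reactions were stopped with Tris buffer raising pH to neutrality. Cleavage was read as fluorescence at excitation 500 nm, emission 580 nm.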

human recombinant BACE2, sequence (Q9Y5Z0 63-518): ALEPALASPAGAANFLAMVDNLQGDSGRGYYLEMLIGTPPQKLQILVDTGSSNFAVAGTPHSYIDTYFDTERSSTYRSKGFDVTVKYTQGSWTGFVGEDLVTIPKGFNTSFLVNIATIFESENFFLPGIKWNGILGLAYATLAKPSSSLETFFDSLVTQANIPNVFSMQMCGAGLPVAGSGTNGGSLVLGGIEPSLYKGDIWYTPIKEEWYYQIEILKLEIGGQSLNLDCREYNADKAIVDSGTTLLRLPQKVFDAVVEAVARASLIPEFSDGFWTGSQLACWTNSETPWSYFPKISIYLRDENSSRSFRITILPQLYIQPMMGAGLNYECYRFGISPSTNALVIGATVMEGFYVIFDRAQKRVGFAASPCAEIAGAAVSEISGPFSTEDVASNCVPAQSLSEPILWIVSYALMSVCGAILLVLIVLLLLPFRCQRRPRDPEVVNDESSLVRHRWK
human recombinant BACE1, sequence (P56817 46-501): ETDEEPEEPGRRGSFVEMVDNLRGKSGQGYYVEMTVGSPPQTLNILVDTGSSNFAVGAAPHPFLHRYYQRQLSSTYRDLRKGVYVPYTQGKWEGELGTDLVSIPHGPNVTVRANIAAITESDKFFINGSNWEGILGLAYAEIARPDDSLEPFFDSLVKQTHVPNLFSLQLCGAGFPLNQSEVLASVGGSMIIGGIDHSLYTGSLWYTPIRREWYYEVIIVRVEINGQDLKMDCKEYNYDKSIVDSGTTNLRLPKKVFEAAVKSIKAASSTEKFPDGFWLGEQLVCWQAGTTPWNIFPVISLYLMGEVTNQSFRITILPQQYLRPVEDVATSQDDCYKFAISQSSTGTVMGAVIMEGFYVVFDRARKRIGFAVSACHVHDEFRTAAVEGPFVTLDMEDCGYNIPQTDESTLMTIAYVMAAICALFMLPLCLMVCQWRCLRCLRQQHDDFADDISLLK
Recombinant Cat D, sequence (P07339 65-412): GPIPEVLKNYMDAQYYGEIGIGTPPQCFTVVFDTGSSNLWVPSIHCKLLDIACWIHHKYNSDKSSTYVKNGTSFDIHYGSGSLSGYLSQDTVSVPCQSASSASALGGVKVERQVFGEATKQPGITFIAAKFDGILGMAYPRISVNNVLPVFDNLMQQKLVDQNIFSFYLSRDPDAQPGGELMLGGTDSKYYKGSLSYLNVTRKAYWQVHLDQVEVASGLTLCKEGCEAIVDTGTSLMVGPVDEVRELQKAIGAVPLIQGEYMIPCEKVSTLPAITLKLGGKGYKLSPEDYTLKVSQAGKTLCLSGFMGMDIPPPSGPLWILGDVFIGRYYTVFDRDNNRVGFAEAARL

Row | IC50 (human recombinant BACE1) | IC50 (human recombinant BACE2) | IC50 [1] | IC50 (Recombinant Cat D) | SMILES
1 | 276 pM | < 0.00203 µM | 0.000709 µM | 1120 µM | CNC(=O)[C@]12C[C@H]1[C@@](C)(c1cc(NC(=O)c3ccc(Cl)cn3)ccc1F)N=C(N)S2 [Example 985, (1S,5S,6S)-3-amino-5-(5-(5-chloropicolinamido)-2-fluorophenyl)-N,5-dimethyl-2-thia-4-azabicyclo[4.1.0]hept-3-ene-1-carboxamide]
2 | 1130 pM | 0.00598 µM | 0.00141 µM | 172 µM | CC(C)(C)NC(=O)[C@]12C[C@H]1[C@@](C)(c1cc(NC(=O)c3ccc(C#N)cn3)ccc1F)N=C(N)S2 [Example 986, (1S,5S,6S)-3-amino-N-tert-butyl-5-(5-(((5-cyano-2-pyridinyl)carbonyl)amino)-2-fluorophenyl)-5-methyl-2-thia-4-azabicyclo[4.1.0]hept-3-ene-1-carboxamide]
3 | 140 pM | 0.0079 µM | 0.000229 µM | 49.9 µM | C#CCOc1cnc(C(=O)Nc2ccc(F)c([C@@]3(C)N=C(N)S[C@@]4(C(=O)NC)C[C@H]43)c2)cn1 [Example 987, (1S,5S,6S)-3-amino-5-(2-fluoro-5-(((5-(2-propyn-1-yloxy)-2-pyrazinyl)carbonyl)amino)phenyl)-N,5-dimethyl-2-thia-4-azabicyclo[4.1.0]hept-3-ene-1-carboxamide]
4 | 21600 pM | 0.336 µM | 0.0532 µM | > 400 µM | C#C[C@@H](C)Oc1cnc(C(=O)Nc2ccc(F)c([C@@]3(C)N=C(N)S[C@@]4(COC)C[C@H]43)c2)cn1 [Example 988]
5 | 518 pM | 0.0406 µM | 0.00067 µM | 174 µM | C#CCOc1cnc(C(=O)Nc2cnc(OC)c([C@@]3(C)N=C(N)S[C@@]4(C(F)F)C[C@@H]34)c2)cn1 [Example 989, N-(5-((1S,5S,6S)-3-amino-1-(difluoromethyl)-5-methyl-2-thia-4-azabicyclo[4.1.0]hept-3-en-5-yl)-6-methoxy-3-pyridinyl)-5-(2-propyn-1-yloxy)-2-pyrazinecarboxamide]
6 | 20800 pM | 0.00465 µM | 0.026 µM | 67 µM | COc1ncc(NC(=O)c2ccc(Cl)cn2)cc1[C@@]1(C)N=C(N)S[C@@]2(C(F)F)C[C@@H]12 [Example 990, N-(5-((1S,5S,6S)-3-amino-1-(difluoromethyl)-5-methyl-2-thia-4-azabicyclo[4.1.0]hept-3-en-5-yl)-6-methoxy-3-pyridinyl)-5-chloro-2-pyridinecarboxamide]
7 | 297 pM | 0.0097 µM | 0.000265 µM | 664 µM | C[C@]1(c2cc(NC(=O)c3cnc(OCC(F)(F)F)cn3)ccc2F)N=C(N)S[C@@]2(C(=O)N3CC[C@@H](F)C3)C[C@H]21 [Example 991, N-(3-((1S,5S,6S)-3-amino-1-((R)-3-fluoropyrrolidine-1-carbonyl)-5-methyl-2-thia-4-azabicyclo[4.1.0]hept-3-en-5-yl)-4-fluorophenyl)-5-(2,2,2-trifluoroethoxy)pyrazine-2-carboxamide]
8 | 776 pM | 0.0125 µM | 0.000338 µM | 954 µM | C[C@]1(c2cc(NC(=O)c3cnc(OCC(F)(F)F)cn3)ccc2F)N=C(N)S[C@@]2(C(=O)N3CC[C@H](F)C3)C[C@H]21 [Example 992, N-(3-((1S,5S,6S)-3-amino-1-((S)-3-fluoropyrrolidine-1-carbonyl)-5-methyl-2-thia-4-azabicyclo[4.1.0]hept-3-en-5-yl)-4-fluorophenyl)-5-(2,2,2-trifluoroethoxy)pyrazine-2-carboxamide]
9 | 480 pM | 0.061 µM | 0.000566 µM | 255 µM | C#C[C@H](C)Oc1cnc(C(=O)Nc2ccc(F)c([C@@]3(C)N=C(N)S[C@@]4(C(=O)NC5CC5)C[C@H]43)c2)cn1 [Example 993, (1S,5S,6S)-3-amino-N-cyclopropyl-5-(2-fluoro-5-(((5-(((1S)-1-methyl-2-propyn-1-yl)oxy)-2-pyrazinyl)carbonyl)amino)phenyl)-5-methyl-2-thia-4-azabicyclo[4.1.0]hept-3-ene-1-carboxamide]
10 | 690 pM | 0.0689 µM | 0.00116 µM | 215 µM | C#C[C@H](C)Oc1cnc(C(=O)Nc2ccc(F)c([C@@]3(C)N=C(N)S[C@@]4(C(=O)NC(C)(C)C)C[C@H]43)c2)cn1 [Example 994, (1S,5S,6S)-3-amino-N-tert-butyl-5-(2-fluoro-5-(((5-(((1S)-1-methyl-2-propyn-1-yl)oxy)-2-pyrazinyl)carbonyl)amino)phenyl)-5-methyl-2-thia-4-azabicyclo[4.1.0]hept-3-ene-1-carboxamide]
11 | 893 pM | 0.0509 µM | 0.00672 µM | 9.48 µM | CC(C)[C@@H](C)NC(=O)[C@]12C[C@H]1[C@@](C)(c1cc(NC(=O)c3cnc(OCC(F)(F)F)cn3)ccc1F)N=C(N)S2 [Example 997, (1S,5S,6S)-3-amino-5-(2-fluoro-5-(5-(2,2,2-trifluoroethoxy)pyrazine-2-carboxamido)phenyl)-5-methyl-N—((R)-3-methylbutan-2-yl)-2-thia-4-azabicyclo[4.1.0]hept-3-ene-1-carboxamide]
12 | 146 pM | 0.0754 µM | 0.0017 µM | > 400 µM | C[C@]1(c2cc(NC(=O)c3cnc(OCC(F)(F)F)cn3)ccc2F)N=C(N)S[C@@]2(C(=O)N3CCOCC3)C[C@H]21 [Example 998, N-(3-((1S,5S,6S)-3-amino-5-methyl-1-(morpholine-4-carbonyl)-2-thia-4-azabicyclo[4.1.0]hept-3-en-5-yl)-4-fluorophenyl)-5-(2,2,2-trifluoroethoxy)pyrazine-2-carboxamide]
13 | 90 pM | 0.0755 µM | 0.00613 µM | 180 µM | C[C@]1(c2cc(NC(=O)c3cnc(OCC(F)(F)F)cn3)ccc2F)N=C(N)S[C@@]2(C(=O)NCC(F)F)C[C@H]21 [Example 999, (1S,5S,6S)-3-amino-N-(2,2-difluoroethyl)-5-(2-fluoro-5-(5-(2,2,2-trifluoroethoxy)pyrazine-2-carboxamido)phenyl)-5-methyl-2-thia-4-azabicyclo[4.1.0]hept-3-ene-1-carboxamide]
14 | 70 pM | 0.00345 µM | 0.000921 µM | 1000 µM | CN(C)C(=O)[C@]12C[C@H]1[C@@](C)(c1cc(NC(=O)c3cnc(OCC(F)(F)F)cn3)ccc1F)N=C(N)S2 [Example 1000, (1S,5S,6S)-3-amino-5-(2-fluoro-5-(5-(2,2,2-trifluoroethoxy)pyrazine-2-carboxamido)phenyl)-N,N,5-trimethyl-2-thia-4-azabicyclo[4.1.0]hept-3-ene-1-carboxamide]
15 | 59 pM | 0.356 µM | 0.00589 µM | 492 µM | COC[C@H](C)Oc1cnc(C(=O)Nc2ccc(F)c([C@@]3(C)N=C(N)S[C@@]4(C(=O)NC5CC5)C[C@H]43)c2)cn1 [Example 1001, (1S,5S,6S)-3-amino-N-cyclopropyl-5-(2-fluoro-5-(((5-((1S)-2-methoxy-1-methylethoxy)-2-pyrazinyl)carbonyl)amino)phenyl)-5-methyl-2-thia-4-azabicyclo[4.1.0]hept-3-ene-1-carboxamide]
16 | 1770 pM | 0.165 µM | 0.00484 µM | 82.7 µM | CC(C)(C)NC(=O)[C@]12C[C@H]1[C@@](C)(c1cc(NC(=O)c3cnc(OCC(F)(F)F)cn3)ccc1F)N=C(N)S2 [Example 1002, (1S,5S,6S)-3-amino-N-tert-butyl-5-(2-fluoro-5-(((5-(2,2,2-trifluoroethoxy)-2-pyrazinyl)carbonyl)amino)phenyl)-5-methyl-2-thia-4-azabicyclo[4.1.0]hept-3-ene-1-carboxamide]
17 | 5650 pM | 0.48 µM | 0.021 µM | 297 µM | COC[C@H](C)Oc1cnc(C(=O)Nc2ccc(F)c([C@@]3(C)N=C(N)S[C@@]4(C(=O)NC(C)(C)C)C[C@H]43)c2)cn1 [Example 1003, (1S,5S,6S)-3-amino-N-tert-butyl-5-(2-fluoro-5-(((5-((1S)-2-methoxy-1-methylethoxy)-2-pyrazinyl)carbonyl)amino)phenyl)-5-methyl-2-thia-4-azabicyclo[4.1.0]hept-3-ene-1-carboxamide]
18 | 100 pM | 0.00235 µM | 0.000324 µM | 14.9 µM | C#CCOc1cnc(C(=O)Nc2cc(F)c(F)c([C@@]3(C)N=C(N)S[C@@]4(C(=O)N5CCOCC5)C[C@H]43)c2)cn1 [Example 1004, N-(3-((1S,5S,6S)-3-amino-5-methyl-1-(morpholine-4-carbonyl)-2-thia-4-azabicyclo[4.1.0]hept-3-en-5-yl)-4,5-difluorophenyl)-5-(prop-2-yn-1-yloxy)pyrazine-2-carboxamide]
19 | 384 pM | 0.00516 µM | 0.00108 µM | 72.1 µM | C#CCOc1cnc(C(=O)Nc2ccc(F)c([C@@]3(C)N=C(N)S[C@@]4(C(=O)N5CCOCC5)C[C@H]43)c2)cn1 [Example 1005, N-(3-((1S,5S,6S)-3-amino-5-methyl-1-(morpholine-4-carbonyl)-2-thia-4-azabicyclo[4.1.0]hept-3-en-5-yl)-4-fluorophenyl)-5-(prop-2-yn-1-yloxy)pyrazine-2-carboxamide]
